Legend:
Format in all cases: cell-based
[1] = test system: E. coli; experiment: In-vitro antibacterial activity (MIC/MBC), coated 96-well plate; details: 10^5 CFU/mL, 37° C., 24 h, composite as (1c+AgPTS)
Protocol: (§1) Chitin derivatives were first dissolved in methanol (50 mg/mL) and the solutions were serially diluted. 20 μL of the solutions of different concentrations were added into wells of a 96-well plate. The solution was first air-dried and finally dried in vacuum oven to make a film onto the flat-bottom surface of wells of 96-well plate. Each concentration was applied in triplicate for all the samples to study the antibacterial activity. In order to make films on surfaces such as microscopic glass slide, methanolic solutions of polymer (350 μL) were spin coated onto the glass surface by using a spin coater. […] To prepare thin films, mixed solutions (350 μL) obtained from the solutions of these medically relevant polymers in chloroform and methanolic solution of the chitin derivatives (CHCl3: MeOH=9:1) were spin coated onto the glass surface and dried in air. For the biodegradation study, thin films of the chitin derivatives were prepared on microscopic cover glass.
(§2) To determine the antibacterial activity of the synthesized polymers, 200 μL of 10^5 CFU/mL of bacteria were added to the wells of 96-well plate coated with the chitin derivatives with different amounts. […] The data was then subjected to sigmoidal fitting.

[2] = test system: S. aureus; experiment: as above; details: 10^5 CFU/mL, 37° C., 24 h, composite as (1c+AgPTS)
Protocol: as §1, §2

[3] = test system: S. aureus; experiment: Antibacterial kinetics; details: coated at 6×MIC; followed upto 360 min
Protocol: A quantity of 200 μL of a solution containing approximately 4.9×10^5 CFU/mL of S. aureus in nutrient broth and 5.1×10^5 CFU/mL in Luria-Bertani (LB) broth were added, and the plates were kept in an incubated shaker at 37° C. The initial time of addition of the bacteria to the wells was taken as zero, and 10 μL aliquots were withdrawn from each of the wells at set time intervals. These aliquots were added immediately to 90 μL of 0.9% saline. These solutions were further diluted by a factor of 10, and 20 μL of all the dilutions was plated on nutrient or LB agar plates immediately. The plates were incubated at 37° C. for 24 h; and bacterial colonies were counted. A plot of CFU (Log10 CFU/mL) versus time was then plotted.
Antibacterial kinetics assay was performed similarly as mentioned earlier.

Structure (SMILES): Cc1ccc(S(=O)(=O)[O-])cc1.[Ag+] [AgPTS, silver para-toluene sulfonate]
- MIC [1]: 10 µg/mL
- MIC [2]: 39 µg/mL
- Time at which S. aureus was killed [3]: bacteriostatic

— US20180201694A1, “CHITIN DERIVATIVES, METHOD FOR PRODUCTION AND USES THEREOF” (JAWAHARLAL NEHRU CENTRE FOR ADVANCED SCIENTIFIC RESEARCH …, priority 2013, published 2018)
